Molecules are shown by their SMILES. Entries after “also recorded” stand apart in the source; their conditions may differ. Read-outs that look alike come from different tables or passages of the source. Bounds are passed on as bounds.

The test system of data set [1] is Escherichia coli ATCC35218. Kind of data set: microbe, parasite or virus in culture. It is filed as cell-based. The following applies: ATCC35218, read-out: MIC Ec.
The test system of data set [2] is S. aureus ATCC33592. The data set is described as follows: microbe, parasite or virus in culture. It counts as cell-based. The following applies: Staphylococcus aureus, ATCC33592, read-out: MIC Sa.
Data set [3] has as its system Septoria tritici MUCL45408. The data set is described as follows: Minimum inhibitory concentration (MIC), S. tritici (ATP quantification). The note with it: Zymoseptoria tritici, MUCL45408, 96 h, read-out: MIC St. It is filed as cell-based.
Data set [4] has as its system C. elegans DC19. Kind of data set: whole plant or invertebrate. It counts as cell-based, Caenorhabditis elegans. The note with it: Caenorhabditis elegans, 48 h, read-out: MMIC DC19. A digest of the protocol:
(§1)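 Synchronized L1/L2 larvae of C. elegans N2 or drug-sensitive DC19, 100 worms/mL in NGM broth with cholesterol, carbenicillin and E. coli OP50, exposed to compound dilutions (64-0.5 µg/mL) for 2 days at room temperature. Motility judged from 1.5-second well videos; MMIC is the lowest concentration inhibiting movement.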

The subject of data set [5] is C. elegans N2. Kind of data set: whole plant or invertebrate. It is filed as cell-based, Caenorhabditis elegans. The following applies: Caenorhabditis elegans, 48 h, read-out: MMIC N2. In short, it runs like this: as §1
In data set [6] the test system is Schistosoma mansoni. The data set is described as follows: In vitro tests against Schistosoma mansoni (vitality parameters of adult worm pairs). It counts as cell-based. The note with it: for Effect on S. mansoni: 10 and 20 μM, up to 7 days, Det: detachment of suckers, Mot: motility reduction, Sep: pair separation; for activity against S. mansoni (100% effect strength in one parameter within 7 days = active): 10 or 20 μM. The procedure:
Subsequently, we tested whether compounds with nematocidal activity display a broader activity also against parasitic flatworms. To this end, in vitro tests against the blood fluke S. mansoni were conducted (Fig. 4). The worms were incubated in presence of 10 and 20 μM of compounds 1–22 and phenotypic vitality parameters (separation of worm pairs, detachment of suckers from the bottom of the well and weakening of body movements) were assessed as previously described.[31] Compounds reaching 100% effect strength in one of the parameters within 7 days were considered active. Reduction of motility is considered most relevant for antischistosomal drug candidates.[32] In addition, loss of sucker activity would make parasites drifting off from their host habitat (mesenteric veins) and with pair separation, the production of pathology-causing eggs eventually ceases.[33] […] For some molecular targets e.g. glutamate and GABA chloride channels (ivermecin, abamectin) and β-tubulin (albendazole, mebendazole) the C. elegans assays results were transferable to Schistosoma, while for others e.g. acetylcholin mimetic (levamisole) the C. elegans MMIC was not predicative (Fig. S1 ^†).
2.2 Parasitological studies
Animal experiments were performed in accordance with Directive 2010/63/EU on the protection of animals used for scientific purposes and the German Animal Welfare Act. The experiments were approved by the Regional Council (Regierungspraesidium) Giessen (V54 – […]
A Liberian strain of S. mansoni was maintained in the freshwater snail Biomphalaria glabrata as intermediate host and Syrian hamsters (Mesocricetus auratus) as final host (Janvier Labs, France).5,6 Hamsters were infected at 8 weeks of age with 1,750 cercariae by using the paddling method.7 Adult worms were collected at 46 days p.i. by hepatoportal perfusion and cultured in M199 medium (Sigma-Aldrich, Germany) supplemented with 10% Newborn Calf Serum (NCS, Sigma-Aldrich), 1% 1 M HEPES (ThermoFisher Scientific, USA) and 1% ABAM solution (10,000 units/ml penicillin, 10 mg/ml streptomycin and […] amphotericin B; Sigma-Aldrich, Germany) at 37 °C, 5% CO2 and humidified atmosphere.
2.2.3. In vitro tests against Schistosoma mansoni
Test compounds were added at 10 µM or 20 µM in supplemented M199 medium to schistosomes (5 worm pairs per replicate) followed by a 7 d in vitro culture. Worms receiving the solvent DMSO at equal dilution served as negative control. The following vitality parameters were assessed every 24 h by bright field microscopy using a Leica DM IL inverted microscope and x2.5 objective lens: separation of worm pairs into male and female worms; detachment of suckers from the bottom; and weakening of body movements. Worm motility was scored as described previously, 8 with the scores 3 (normal motility), 2 (reduced motility), 1 (minimal and sporadic movements), 0 (no movements within 20 sec; dead worms). An average score of all worms per well was calculated to obtain a motility score. An average motility score of 0, separation of all pairs or detachment of all worms per well was considered

Data set [7] relates to C. elegans strains N2 and DC19. The data set is described as follows: MMIC against C. elegans, strains N2 and DC19 reported together or strain not stated. It is filed as cell-based. The note with it: Caenorhabditis elegans, 48 h. From the text:
The cuticle of C. elegans strain DC19 is known to be more permeable for small molecules compared to the wildtype N2.[30] DC19 is thereby considered an informative drug-sensitive test organism. In our assays, we determined the minimum mobility inhibitory concentration (MMIC) as a proxy for anthelmintic activity. […] In contrast, MMICs of some small molecule anthelmintics such as albendazole, mebendazole or PF-1022A were lower for DC19 (Fig. S1 ^†). […]
2.2 In vitro tests against Caenorhabditis Elegans
The minimal motility inhibitory concentration (MMIC) of compounds 1-22 against C. elegans was determined as described before.3 Both strains, C. elegans N2 and DC19 were treated identically. Briefly, pre-cultures of C.elegans were kept on NGM agar plates infused with auxotrophic E.coli OP50 as food source.4 After 4 days the plates contained sufficient gravid worms, respectively. Worms were washed from the plates with M9 buffer using wide bore pipette tips. Egg preparation was carried out by treating the harvested worms with an alkaline hypochlorite solution (5 M NaOH + 5 % NaOCl 1:2) in polypropylene tubes. Larvae and adult […]
We carried out 3 washing steps (M9 buffer) to remove carry-over hypochlorite solution. Subsequently, the eggs were incubated overnight in NGM broth on a rotator to yield synchronized hatched L1/L2 larvae. The larvae solution was adjusted to 100 worms/mL and supplemented with cholesterol (5 µg/mL), carbenicillin (25 µg/mL) and E.coli OP50 (0.5%). This assay solution was distributed into 96 well plates and incubated with a dilution series of compounds 1-22 (64-0.5 µg/mL). An additional eight-point dilution series of ivermecin (40 – 0.3 ng/mL) was used as positive control on each assay plate. Solvent background was controlled by supplementation of pure DMSO without any compound. Assays were incubated for 2 days at room temperature. Finally, a cell imaging multimode reader (Cytation™ 5) was used to record short videos (1.5 seconds) of each individual test well. The videos were used to evaluate the worm motility.

A short description of data set [8]: in vitro. The note with it: dog.
Data set [9] concerns MDCK II cells. The data set is described as follows: In vitro cytotoxicity, CellTiter-Glo, MDCK II cells. The note with it: 100 μM; for MDCKII cytotoxicity: 48 h, cell viability less than 80% relative to DMSO control = cytotoxic. A general note: Cellular ATP, detected with luciferase, serves as a proxy for viable cell number.

As to `CC1(C)CC(Cl)CN(Cc2cc(CN3CC(Cl)CC(C)(C)C3)cc([N+](=O)[O-])c2)C1` (centres unmarked) [Compound 5], the MIC in data set [1], in [2] and in [3] was greater than 64 µg/mL in each case. The minimal effective concentration in [4] was 16 µg/mL; in [5], 16 µg/mL; in [7] (C. elegans, read-out: MMIC N2 and DC19), less than 20 µg/mL. Also, the “sucker detachment of Schistosoma worm pairs” value in data set [6] (10 μM) is reported as “full sucker detachment”. Besides, the “Effect on S. mansoni” value in data set [6] is on record as “Det, Sep, Lethal”. In data set [6], the “activity against S. mansoni (100% effect strength in one parameter within 7 days = active)” value is reported as “showed an effect on S. mansoni; also recorded: active at 10 μM”. Moreover, the motility score in [6] (score 3 normal motility to 0 dead, paragraph on 20 μM) is 1–1.2. In addition, the CC50 in data set [8] was greater than 1000 µM. For the same molecule, the MDCKII cytotoxicity result in data set [9] is on record as “− (“−” (not toxic))”.
Regarding `COc1ccc(CN2CC(Cl)CC(C)(C)C2)c(CN2CC(Cl)CC(C)(C)C2)c1` (centres unmarked) [Compound 9], the MIC in data set [1], in [2] and in [3] was greater than 64 µg/mL in each case. For the same molecule, the minimal effective concentration is 64 µg/mL in [4]; greater than 64 µg/mL in data set [5]; 64 µg/mL in [7] (read-out: MMIC N2 and DC19, C. elegans). Also, the “separation of worm pairs” value in data set [6] (10 μM, after 3 days) is “separation of all worm pairs”. The lethal effects entry in data set [6] (20 μM, after seven days) is listed as “lethal effects”. The sucker detachment result in data set [6] (20 μM, after three days) is on record as “sucker detachment already after three days”. Further, in data set [6], the “Effect on S. mansoni” value is on record as “Det, Sep, Lethal”. The “activity against S. mansoni (100% effect strength in one parameter within 7 days = active)” value in [6] is “Schistosoma-specific; also recorded: active at 20 μM”. Besides, the CC50 in [8] was found to be 70 µM. For the same molecule, in data set [9], the “cytotoxicity against MDCK II (in words)” value is given as “cytotoxic”. Besides, the MDCKII cytotoxicity result in [9] is “+ (“+” (toxic))”.

For the origin of these results see publication PMC11718441, “Bis-3-chloropiperidines: a novel motif for anthelmintic drug design” (RSC Advances, 2025).
